From patent US12478626B2, “Kinase mutants and uses thereof” (SIB Swiss Institute of Bioinformatics, priority 2017, dated 2025)

Assays:
[1] = system: Zap-70 mutants in P116 cells; assay: Inhibition of IL-2 production by TKI at two concentrations, Zap-70 mutants versus WT; details: 500 nM and 1 or […], 24 h and 48 h
wild type Zap-70 = biological target: T1, wild type Zap-70 (Homo sapiens, UniProt P43403); details: Karaman et al.; cited from earlier work
T1 sequence (P43403 1-619): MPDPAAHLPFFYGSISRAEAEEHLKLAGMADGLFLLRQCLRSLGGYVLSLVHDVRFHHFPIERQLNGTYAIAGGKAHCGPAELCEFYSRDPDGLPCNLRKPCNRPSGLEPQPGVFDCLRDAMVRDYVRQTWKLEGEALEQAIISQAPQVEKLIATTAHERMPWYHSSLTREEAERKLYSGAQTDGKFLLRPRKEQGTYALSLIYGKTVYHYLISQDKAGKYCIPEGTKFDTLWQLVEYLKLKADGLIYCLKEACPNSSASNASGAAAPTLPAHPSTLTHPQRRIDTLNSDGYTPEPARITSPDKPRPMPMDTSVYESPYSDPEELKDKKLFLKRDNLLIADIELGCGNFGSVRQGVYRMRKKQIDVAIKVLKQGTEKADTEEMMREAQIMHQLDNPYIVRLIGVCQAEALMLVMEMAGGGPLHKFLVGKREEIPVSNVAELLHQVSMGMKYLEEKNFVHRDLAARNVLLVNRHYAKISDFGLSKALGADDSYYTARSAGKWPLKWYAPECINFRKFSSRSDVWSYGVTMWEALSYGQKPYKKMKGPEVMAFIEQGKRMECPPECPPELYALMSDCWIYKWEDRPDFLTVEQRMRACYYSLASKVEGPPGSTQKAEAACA

Compound	inhibition in production of IL-2 in mutants compared to Zap-70 WT [1]	inhibitory effect on the wild type Zap-70 (wild type Zap-70)
CCOc1cc2ncc(C#N)c(Nc3ccc(OCc4ccccn4)c(Cl)c3)c2cc1NC(=O)/C=C/CN(C)C [Neratinib]	No significantly different inhibition	–
Crizotinib	increase of cell response	–
C#Cc1cccc(Nc2ncnc3cc(OCCOC)c(OCCOC)cc23)c1 [Erlotinib]	higher in mutants than WT	–
C=CC(=O)Nc1cccc(Nc2nc(Nc3ccc(N4CCN(C(C)=O)CC4)cc3OC)ncc2C(F)(F)F)c1 [CO-1686]	No significantly different inhibition	–
CS(=O)(=O)CCNCc1ccc(-c2ccc3ncnc(Nc4ccc(OCc5cccc(F)c5)c(Cl)c4)c3c2)o1 [Lapatinib]	increase of cell response	no or little inhibitory effect
